These are literature values, as cited in patent publication US20100105761A1, “TREATMENT OF PAIN THROUGH EXPRESSION OF OPIOID RECEPTORS” (priority 2006, published 2010).

Data set [1] deals with TMJ area. As to conditions: rats, dose dependent.
The subject of data set [2] is masseter muscle. As to conditions: rat.
The test system of data set [3] is masseter muscle. As to conditions: human.
The subject of data set [4] is TMJ. As to conditions: placed into the TMJ of cats.
The subject of data set [5] is μ1-site.
For data set [6], the system named is μ receptor.
Data set [7] concerns μ receptor. As to conditions: in vivo.

Read-outs that look alike come from different tables or passages of the source.

Consider `N[C@@H](CCC(=O)O)C(=O)O` [glutamate], for which the “EMG activity after injection into the TMJ area” value in data set [1] is given as “induced a prolonged increase in EMG activity”. The “masseter muscle activity, female versus male” value in data set [2] and in data set [3] was “evoked higher masseter muscle activity in female than males” in each case.
For `NCCc1c[nH]cn1` [histamine], the “EMG activity in the temporal, digastric and genioglossus muscles” value in data set [4] is on record as “increase in electromyographic (EMG) activity”.
For the compound `[Cl-].[K+]` [potassium chloride], the “EMG activity in the temporal, digastric and genioglossus muscles” value in data set [4] is listed as “increase in electromyographic (EMG) activity”.
Regarding `C=CCN1CC[C@]23c4c5ccc(O)c4O[C@H]2/C(=N/N=C2\CC[C@@]4(O)[C@H]6Cc7ccc(O)c8c7[C@@]4(CCN6CC=C)[C@H]2O8)CC[C@@]3(O)[C@H]1C5` [naloxonazine], the “effect on binding of radioligands to the μ1-site” value in data set [5] is “abolish the binding of radioligands”.
`CC(=O)Oc1ccc2c3c1O[C@H]1[C@@H](OC(C)=O)C=C[C@H]4[C@@H](C2)N(C)CC[C@@]341` [heroin]: in data set [6] (CXBX strain), the “antinociception in mice of the CXBX strain” value was “potently antinociceptive”. The “antinociception in MOR-1 knockout mice, exon-1 disrupted” value in data set [6] (MOR-1 knockout, exon-1) is “still produce antinociception”.
With `C=CCN1CC[C@]23c4c5ccc(O)c4O[C@H]2/C(=N\N)CC[C@@]3(O)[C@H]1C5` [naloxazone], in data set [5], the “effect on binding of radioligands to the μ1-site” value was “abolish the binding of radioligands”. In addition, in data set [7], the “blockade of morphine-induced antinociception” value is “selectively blocked”, the “blockade of morphine-induced respiratory depression” value was “did not block” and the “blockade of the induction of morphine dependence” value is recorded as “did not block”.
